Measurements taken from ChEMBL document CHEMBL5154648, “Antitumor activity of novel POLA1-HDAC11 dual inhibitors” (Eur J Med Chem, 2022).
Activity calls are given as the source filed them. The calls are words filed in the database; no cut-off is given here.

Assays:
[1] = tested on: NCI-H460; test: Antiproliferative activity against human NCI-H460 cells incubated for 24 hrs followed by incubating in drug-free medium for 48 hrs and measured by SRB assay; format: functional, cell-based
[2] = Antiproliferative activity against human H460-R9A cells incubated for 24 hrs followed by incubating in drug-free medium for 48 hrs and measured by SRB assay; format: functional, cell-based
[3] = Resistance index, ratio of IC50 for human NCI-H460 cells to IC50 for H460-R9A cells; format: functional
[4] = tested on: A2780; test: Antiproliferative activity against human A2780 cells incubated for 24 hrs followed by incubating in drug-free medium for 48 hrs and measured by SRB assay; format: functional, cell-based
[5] = Antiproliferative activity against multi-drug resistant human A2780-DX cells incubated for 24 hrs followed by incubating in drug-free medium for 48 hrs and measured by SRB assay; format: functional, cell-based
[6] = Resistance index, ratio of IC50 for human A2780 cells to IC50 for A2780-DX cells; format: functional
[7] = Antiproliferative activity against human MM432 cells incubated for 24 hrs followed by incubating in drug-free medium for 48 hrs and measured by SRB assay; format: functional, cell-based
[8] = tested on: MM473; test: Antiproliferative activity against human MM473 cells incubated for 24 hrs followed by incubating in drug-free medium for 48 hrs and measured by SRB assay; format: functional, cell-based
[9] = Antiproliferative activity against human MM487 cells incubated for 24 hrs followed by incubating in drug-free medium for 48 hrs and measured by SRB assay; format: functional, cell-based
[10] = tested on: Ramos; test: Antiproliferative activity against human Ramos cells incubated for 24 hrs followed by incubating in drug-free medium for 48 hrs and measured by SRB assay; format: functional, cell-based
[11] = tested on: L-428; test: Antiproliferative activity against human L-428 cells incubated for 24 hrs followed by incubating in drug-free medium for 48 hrs and measured by SRB assay; format: functional, cell-based
[12] = tested on: U2932; test: Antiproliferative activity against human U2932 cells incubated for 24 hrs followed by incubating in drug-free medium for 48 hrs and measured by SRB assay; format: functional, cell-based
[13] = tested on: Z-138; test: Antiproliferative activity against human Z138 cells incubated for 24 hrs followed by incubating in drug-free medium for 48 hrs and measured by SRB assay; format: functional, cell-based
[14] = tested on: NB-4; test: Antiproliferative activity against human NB-4 cells incubated for 24 hrs followed by incubating in drug-free medium for 48 hrs and measured by SRB assay; format: functional, cell-based
[15] = tested on: THP-1; test: Antiproliferative activity against human THP-1 cells incubated for 24 hrs followed by incubating in drug-free medium for 48 hrs and measured by SRB assay; format: functional, cell-based
[16] = tested on: MDA-MB-436; test: Antiproliferative activity against human MDA-MB-436 cells incubated for 24 hrs followed by incubating in drug-free medium for 48 hrs and measured by SRB assay; format: functional, cell-based
[17] = Antiproliferative activity against human U-87 MG cells incubated for 24 hrs followed by incubating in drug-free medium for 48 hrs and measured by SRB assay; format: functional, cell-based, U-87MG ATCC
[18] = molecular target: T1, Histone deacetylase 11 (Homo sapiens, UniProt Q96DB2); test: Inhibition of HDAC11 (unknown origin) using fluorogenic peptide 382 RHKK(Ac)AM as substrate and measured by fluorescence assay
T1 sequence (Q96DB2 whole entry): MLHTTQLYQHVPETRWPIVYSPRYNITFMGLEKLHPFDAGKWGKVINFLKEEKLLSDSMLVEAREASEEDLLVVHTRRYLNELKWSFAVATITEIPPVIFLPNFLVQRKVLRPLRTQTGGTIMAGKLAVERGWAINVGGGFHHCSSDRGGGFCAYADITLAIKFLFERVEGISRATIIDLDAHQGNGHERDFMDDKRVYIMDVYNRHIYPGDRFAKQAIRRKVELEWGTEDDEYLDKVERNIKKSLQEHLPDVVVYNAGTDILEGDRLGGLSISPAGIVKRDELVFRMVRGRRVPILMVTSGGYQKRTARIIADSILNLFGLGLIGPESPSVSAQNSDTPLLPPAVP

[19] = molecular target: T2, DNA polymerase alpha catalytic subunit (Homo sapiens) (UniProt P09884); test: Inhibition of POLA1 in human NCI-H460 cells at 0.1 to 0.4 uM assessed as upregulation of p21 expression and measured by Western blot analysis; format: cell-based; settings: dose 0.1-0.4 µM
T2 sequence (whole entry): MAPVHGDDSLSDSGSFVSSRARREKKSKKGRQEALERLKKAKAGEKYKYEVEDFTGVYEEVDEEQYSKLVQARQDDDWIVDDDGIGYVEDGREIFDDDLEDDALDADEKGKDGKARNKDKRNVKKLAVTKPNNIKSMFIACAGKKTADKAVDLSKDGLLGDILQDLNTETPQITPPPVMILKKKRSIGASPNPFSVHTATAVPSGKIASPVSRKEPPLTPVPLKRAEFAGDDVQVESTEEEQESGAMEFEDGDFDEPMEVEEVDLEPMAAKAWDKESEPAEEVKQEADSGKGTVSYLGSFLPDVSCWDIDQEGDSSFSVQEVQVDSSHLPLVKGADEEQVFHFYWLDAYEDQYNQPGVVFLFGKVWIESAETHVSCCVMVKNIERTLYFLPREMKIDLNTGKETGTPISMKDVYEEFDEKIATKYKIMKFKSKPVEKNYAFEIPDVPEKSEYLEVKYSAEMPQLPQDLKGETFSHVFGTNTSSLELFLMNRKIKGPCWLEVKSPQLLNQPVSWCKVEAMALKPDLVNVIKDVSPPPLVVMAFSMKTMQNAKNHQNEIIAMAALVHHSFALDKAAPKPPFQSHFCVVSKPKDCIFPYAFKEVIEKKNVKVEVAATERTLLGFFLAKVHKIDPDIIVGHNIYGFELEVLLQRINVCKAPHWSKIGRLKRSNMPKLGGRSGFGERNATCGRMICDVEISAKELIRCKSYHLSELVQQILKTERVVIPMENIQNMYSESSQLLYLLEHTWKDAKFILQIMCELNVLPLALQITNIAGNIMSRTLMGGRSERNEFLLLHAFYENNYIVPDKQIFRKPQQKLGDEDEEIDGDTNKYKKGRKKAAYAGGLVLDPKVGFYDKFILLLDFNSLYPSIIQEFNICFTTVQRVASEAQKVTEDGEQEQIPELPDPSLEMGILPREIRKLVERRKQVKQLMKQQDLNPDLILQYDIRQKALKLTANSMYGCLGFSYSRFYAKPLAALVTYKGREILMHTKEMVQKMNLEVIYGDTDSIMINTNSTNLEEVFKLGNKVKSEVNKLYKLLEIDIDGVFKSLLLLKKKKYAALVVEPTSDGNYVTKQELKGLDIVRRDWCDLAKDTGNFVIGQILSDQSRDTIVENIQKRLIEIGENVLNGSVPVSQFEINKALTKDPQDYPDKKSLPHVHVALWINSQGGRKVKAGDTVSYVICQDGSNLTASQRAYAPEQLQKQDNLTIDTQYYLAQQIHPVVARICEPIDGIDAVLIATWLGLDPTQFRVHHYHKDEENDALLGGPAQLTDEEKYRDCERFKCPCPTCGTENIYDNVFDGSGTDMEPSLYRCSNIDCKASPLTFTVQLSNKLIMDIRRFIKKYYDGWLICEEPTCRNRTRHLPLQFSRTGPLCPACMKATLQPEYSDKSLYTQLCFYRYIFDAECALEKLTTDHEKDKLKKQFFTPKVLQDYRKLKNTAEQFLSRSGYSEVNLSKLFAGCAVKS

Row | IC50 [1] | IC50 [4] | IC50 [10] | IC50 [15] | IC50 [16] | IC50 [18] | inhibition [19] | SMILES | IC50 [2] | Ratio IC50 [3] | IC50 [5] | Ratio IC50 [6] | IC50 [7] | IC50 [8] | IC50 [9] | IC50 [11] | IC50 [12] | IC50 [13] | IC50 [14] | IC50 [17]
1 | 120 nM | 98 nM | 290 nM | 150 nM | 550 nM | > 10000 nM | Active | O=C(O)C=Cc1ccc(-c2ccc(O)c(C34CC5CC(CC(C5)C3)C4)c2)cc1 | 8400 nM | 70 | 170 nM | 1.7 | 430 nM | 600 nM | 100 nM | 450 nM | 77 nM | 26 nM | 100 nM | 530 nM
2 | 250 nM | 600 nM | 710 nM | 420 nM | 640 nM | 6090 nM | Active | O=C(O)C=Cc1ccc(-c2ccc(OCC(=O)NO)c(C34CC5CC(CC(C5)C3)C4)c2)cc1 | 2800 nM | 11.2 | 410 nM | 0.7 | 900 nM | 12000 nM | 22000 nM | 2100 nM | 520 nM | 38 nM | 180 nM | 1100 nM
3 | 260 nM | 950 nM | 1200 nM | 520 nM | 770 nM | 8230 nM | Active | CC(Oc1ccc(-c2ccc(C=CC(=O)O)cc2)cc1C12CC3CC(CC(C3)C1)C2)C(=O)NO (configuration not stated) | 2200 nM | 8.5 | 660 nM | 0.7 | 1400 nM | 1400 nM | 730 nM | 3200 nM | 770 nM | 160 nM | 230 nM | 1000 nM
